Results on five compounds are retold here after the Kinase Knowledgebase extract (Sharma et al. 2016).

By IC50 is commonly meant the concentration at which inhibition is half-maximal. A low value points to greater potency in that assay.

The structures appear in SMILES notation.

The target of assay [1] is PIK3CD (Human) (UniProt O00329). The assay is described as follows: Assessment of PIK3CD Kinase Activity.
In assay [2] the target is PIK3CA (human) (UniProt P42336). Kind of assay: Assessment of PIK3CA Kinase Activity.
Sequence of PIK3CA (human) (P42336 whole entry, looked up): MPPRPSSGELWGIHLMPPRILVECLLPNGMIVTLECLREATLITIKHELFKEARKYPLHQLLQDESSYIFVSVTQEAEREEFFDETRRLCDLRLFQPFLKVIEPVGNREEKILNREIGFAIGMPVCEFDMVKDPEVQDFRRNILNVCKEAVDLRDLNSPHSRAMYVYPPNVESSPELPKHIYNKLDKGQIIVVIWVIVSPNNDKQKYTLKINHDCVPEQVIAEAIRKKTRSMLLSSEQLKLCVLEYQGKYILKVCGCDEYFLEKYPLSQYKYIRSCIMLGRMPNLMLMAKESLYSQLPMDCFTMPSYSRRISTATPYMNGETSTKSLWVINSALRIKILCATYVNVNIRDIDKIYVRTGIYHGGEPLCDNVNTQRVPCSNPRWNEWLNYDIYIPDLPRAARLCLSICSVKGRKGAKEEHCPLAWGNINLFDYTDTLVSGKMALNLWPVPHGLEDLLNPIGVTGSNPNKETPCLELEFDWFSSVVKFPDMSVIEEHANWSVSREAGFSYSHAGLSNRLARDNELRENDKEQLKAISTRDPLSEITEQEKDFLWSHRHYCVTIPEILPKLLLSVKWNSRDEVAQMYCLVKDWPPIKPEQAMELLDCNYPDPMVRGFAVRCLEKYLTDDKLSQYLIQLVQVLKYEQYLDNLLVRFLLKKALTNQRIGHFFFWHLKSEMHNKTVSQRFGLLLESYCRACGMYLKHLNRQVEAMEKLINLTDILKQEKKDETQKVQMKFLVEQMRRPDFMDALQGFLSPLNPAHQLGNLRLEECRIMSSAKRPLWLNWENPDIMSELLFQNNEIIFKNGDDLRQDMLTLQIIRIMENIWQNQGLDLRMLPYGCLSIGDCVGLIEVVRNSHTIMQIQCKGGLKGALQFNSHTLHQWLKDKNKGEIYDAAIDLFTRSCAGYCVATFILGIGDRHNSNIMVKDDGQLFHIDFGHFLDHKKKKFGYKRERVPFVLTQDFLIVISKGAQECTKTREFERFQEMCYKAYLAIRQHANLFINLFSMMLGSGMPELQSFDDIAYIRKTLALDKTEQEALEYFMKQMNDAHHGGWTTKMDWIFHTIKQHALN
Assay [3] addresses PIK3CB (Human) (UniProt P42338). The assay is described as follows: Assessment of PIK3CB Kinase Activity.
The target of assay [4] is PIK3CG (human) (UniProt P48736). Kind of assay: Assessment of PIK3CG Kinase Activity.
Sequence of PIK3CG (human) (P48736 whole entry, looked up): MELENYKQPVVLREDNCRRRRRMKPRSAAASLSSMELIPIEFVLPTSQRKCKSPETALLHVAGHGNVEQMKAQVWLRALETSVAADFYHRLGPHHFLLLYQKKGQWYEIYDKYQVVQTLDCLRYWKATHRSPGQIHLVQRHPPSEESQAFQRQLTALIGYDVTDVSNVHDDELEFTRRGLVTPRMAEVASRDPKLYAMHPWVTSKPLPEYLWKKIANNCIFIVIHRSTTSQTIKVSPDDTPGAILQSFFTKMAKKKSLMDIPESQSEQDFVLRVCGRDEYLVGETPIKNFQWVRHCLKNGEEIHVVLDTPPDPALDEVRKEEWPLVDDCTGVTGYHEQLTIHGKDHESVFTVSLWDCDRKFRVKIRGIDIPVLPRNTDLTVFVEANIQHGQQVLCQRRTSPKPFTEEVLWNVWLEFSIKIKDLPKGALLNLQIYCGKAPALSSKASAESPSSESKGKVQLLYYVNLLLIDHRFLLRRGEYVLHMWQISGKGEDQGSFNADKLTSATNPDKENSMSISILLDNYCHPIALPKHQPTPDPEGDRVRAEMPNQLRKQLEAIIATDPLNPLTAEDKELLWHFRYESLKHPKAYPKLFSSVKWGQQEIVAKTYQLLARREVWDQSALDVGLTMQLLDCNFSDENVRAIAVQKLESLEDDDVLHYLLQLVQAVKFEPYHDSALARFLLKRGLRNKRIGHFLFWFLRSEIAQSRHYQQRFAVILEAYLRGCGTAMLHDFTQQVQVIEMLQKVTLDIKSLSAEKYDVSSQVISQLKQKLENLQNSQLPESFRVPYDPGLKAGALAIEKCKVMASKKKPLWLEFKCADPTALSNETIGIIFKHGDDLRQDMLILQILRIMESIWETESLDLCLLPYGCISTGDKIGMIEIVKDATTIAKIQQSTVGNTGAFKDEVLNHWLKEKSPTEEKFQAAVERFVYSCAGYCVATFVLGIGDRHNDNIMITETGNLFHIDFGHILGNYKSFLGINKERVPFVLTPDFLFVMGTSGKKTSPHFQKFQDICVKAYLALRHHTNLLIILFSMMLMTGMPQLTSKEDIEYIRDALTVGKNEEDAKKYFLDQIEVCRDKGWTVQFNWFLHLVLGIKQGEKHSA

Sequence of PIK3CD (Human) (O00329 whole entry, looked up): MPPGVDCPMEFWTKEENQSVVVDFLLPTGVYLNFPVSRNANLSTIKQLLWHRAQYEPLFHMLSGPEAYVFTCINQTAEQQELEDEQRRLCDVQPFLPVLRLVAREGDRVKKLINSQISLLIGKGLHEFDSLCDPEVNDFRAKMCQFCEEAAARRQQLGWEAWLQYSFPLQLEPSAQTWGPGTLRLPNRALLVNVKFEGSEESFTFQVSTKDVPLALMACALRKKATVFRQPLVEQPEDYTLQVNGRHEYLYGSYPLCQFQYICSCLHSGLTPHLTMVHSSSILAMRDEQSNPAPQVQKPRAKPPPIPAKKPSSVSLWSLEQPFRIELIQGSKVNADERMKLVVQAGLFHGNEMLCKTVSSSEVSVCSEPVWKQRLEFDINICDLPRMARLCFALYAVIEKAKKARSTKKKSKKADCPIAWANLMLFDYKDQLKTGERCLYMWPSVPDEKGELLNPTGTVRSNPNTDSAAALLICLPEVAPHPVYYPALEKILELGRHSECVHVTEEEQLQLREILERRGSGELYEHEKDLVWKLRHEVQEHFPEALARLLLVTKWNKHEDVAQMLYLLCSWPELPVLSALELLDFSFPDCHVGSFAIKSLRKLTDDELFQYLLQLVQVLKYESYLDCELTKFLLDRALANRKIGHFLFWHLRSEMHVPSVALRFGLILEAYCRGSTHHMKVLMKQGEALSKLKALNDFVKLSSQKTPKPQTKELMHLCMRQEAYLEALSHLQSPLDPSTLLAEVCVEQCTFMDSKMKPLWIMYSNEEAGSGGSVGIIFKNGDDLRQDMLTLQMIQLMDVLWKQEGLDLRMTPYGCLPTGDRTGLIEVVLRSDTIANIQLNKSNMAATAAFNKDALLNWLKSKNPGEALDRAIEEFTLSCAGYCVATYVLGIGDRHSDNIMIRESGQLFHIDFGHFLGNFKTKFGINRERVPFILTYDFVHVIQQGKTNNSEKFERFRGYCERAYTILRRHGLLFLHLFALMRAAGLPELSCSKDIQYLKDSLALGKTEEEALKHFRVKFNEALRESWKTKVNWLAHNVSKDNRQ
Sequence of PIK3CB (Human) (P42338 whole entry, looked up): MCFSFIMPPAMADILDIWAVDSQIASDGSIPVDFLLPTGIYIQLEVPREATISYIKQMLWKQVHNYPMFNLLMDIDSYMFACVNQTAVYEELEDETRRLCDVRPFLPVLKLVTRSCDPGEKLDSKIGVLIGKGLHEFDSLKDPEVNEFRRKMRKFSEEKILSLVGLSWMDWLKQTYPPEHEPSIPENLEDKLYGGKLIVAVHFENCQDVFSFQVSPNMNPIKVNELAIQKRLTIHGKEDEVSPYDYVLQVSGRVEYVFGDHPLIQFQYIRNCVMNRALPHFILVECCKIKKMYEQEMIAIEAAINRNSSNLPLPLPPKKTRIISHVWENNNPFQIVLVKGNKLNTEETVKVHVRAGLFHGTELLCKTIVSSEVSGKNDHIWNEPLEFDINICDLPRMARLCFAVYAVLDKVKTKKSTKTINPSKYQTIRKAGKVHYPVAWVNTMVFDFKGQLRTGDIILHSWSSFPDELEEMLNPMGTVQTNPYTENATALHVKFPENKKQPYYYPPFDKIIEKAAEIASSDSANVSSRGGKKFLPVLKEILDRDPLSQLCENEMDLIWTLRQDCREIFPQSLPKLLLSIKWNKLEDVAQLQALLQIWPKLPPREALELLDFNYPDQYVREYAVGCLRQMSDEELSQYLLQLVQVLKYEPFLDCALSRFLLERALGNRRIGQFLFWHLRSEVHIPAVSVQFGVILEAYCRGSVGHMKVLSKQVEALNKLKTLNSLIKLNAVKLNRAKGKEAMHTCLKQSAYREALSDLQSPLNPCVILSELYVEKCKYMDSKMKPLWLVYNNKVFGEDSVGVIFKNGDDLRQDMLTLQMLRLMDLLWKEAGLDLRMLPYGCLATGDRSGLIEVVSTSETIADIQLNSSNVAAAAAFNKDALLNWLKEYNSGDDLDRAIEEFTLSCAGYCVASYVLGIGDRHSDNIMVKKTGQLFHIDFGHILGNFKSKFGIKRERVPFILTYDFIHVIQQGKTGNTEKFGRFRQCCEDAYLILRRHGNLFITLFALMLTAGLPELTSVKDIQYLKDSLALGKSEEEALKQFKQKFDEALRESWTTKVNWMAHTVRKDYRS

Turning to `C[C@H]1COCCN1c1nc(-c2ccc(NC(=O)NCCCO)cc2)nc2c1CN(C)C2`, the IC50 in assay [1] was more than 10 µM.
Still for that read-out and setting: the same measure for `COCCCNC(=O)Nc1ccc(-c2nc3c(c(N4CCOC[C@@H]4C)n2)CN(C)C3)cc1`: more than 10 µM.
Regarding `COC(=O)N1Cc2nc(-c3ccc(NC(=O)NCCF)cc3F)nc(N3CCOCC3)c2C1`, the IC50 in assay [2], in assay [3], in assay [1] and in assay [4] was more than 10 µM in each case.
Consider `C[C@H]1COCCN1c1nc(-c2ccc(NC(=O)NCCN(C)C)cc2)nc2c1CN(C)C2`, for which the IC50 in assay [2], in assay [3] and in assay [1] was 0.1 to 1 µM in each case.
`C[C@H]1COCCN1c1nc(-c2ccc(NC(=O)NC3CCC3)cc2)nc2c1CN(C)C2` gave an IC50 in assay [1] of more than 10 µM.
